Tested on: α7 integrin promoter
Test: muscle cell-based assay: α7βgal+/− myoblasts/myotubes, LacZ reporter, β-galactosidase cleavage of FDG
Design: species or system mouse; Results in α7+/− β-galactosidase assay: scale not given here
Settings: Myoblasts
How it was run: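 Primary α7βgal+/− mouse myoblasts (LacZ knocked into α7 integrin exon 1, promoter retained), differentiated; promoter activity read as β-galactosidase conversion of non-fluorescent FDG to fluorescein. Hits followed by dose-response, western analysis and myostatin counterscreen.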

SMILES | Results in α7+/− β-galactosidase assay (0.5 uM) | Results in α7+/− β-galactosidase assay (1 uM) | Results in α7+/− β-galactosidase assay (5 uM) | Results in α7+/− β-galactosidase assay (10 uM) | Results in α7+/− β-galactosidase assay (20 uM) | Results in α7+/− β-galactosidase assay (40 uM)
O=C(NCc1ccccc1)C(c1c(F)cccc1Cl)N(C(=O)c1csnn1)C1CC1 (stereo not drawn) [drawing 638] | 0.05089 | −0.04686 | −0.06939 | −0.1188 | 0.4333 | −0.4316
Cc1[nH]c2ccc(F)cc2c1CCN(Cc1ccco1)/C(S)=N/C(C)(C)C [drawing 639] | 0.1665 | 0.002443 | −0.08261 | −0.1049 | −0.2055 | −0.2801
c1ccc(-c2cc(-c3nc4ccccc4[nH]3)c3ccccc3n2)cc1 [drawing 640] | 0.2113 | 0.0679 | −0.00848 | −0.0409 | 0.08704 | −0.1752
CCC(C)n1nc(O)cc1N (stereo not drawn) [drawing 641] | 0.2618 | 0.0875 | −0.07378 | −0.09102 | 0.1389 | 0.06802
Cc1ccc(C(=O)N2CCN(S(=O)(=O)N3CCOCC3)CC2)cc1 [drawing 642] | 0.1086 | −0.02563 | 0.3985 | −0.06877 | −0.07784 | −0.1672
Cc1cccc(NC(=O)CN(C)C(=O)c2ccc(-c3ccc(Cl)cc3)o2)c1 [drawing 643] | −0.0624 | −0.00739 | −0.04166 | −0.109 | 0.6807 | −0.2589
Cc1ccccc1S(=O)(=O)N1C[C@H]2CON(C)[C@H]2C[C@H]1c1cccc(-c2ccccc2)c1 [drawing 644] | 0.06241 | 0.06141 | 0.04452 | 0.08987 | −0.2419 | −0.2934
N#C/C(=C/c1ccc(N2CCOCC2)o1)C(=O)Nc1ccccc1 [drawing 645] | 0.06835 | 0.1707 | 0.1316 | 0.05082 | 0.07006 | 0.03748
CCOc1ccccc1Nc1cc2n(c(=O)n1)CCc1cc(OC)c(OC)cc1-2 [drawing 646] | −0.02172 | 0.002645 | −0.2359 | −0.3859 | −0.7975 | −0.7954
CCOc1ccccc1NC(=O)COC(=O)CNS(=O)(=O)c1ccc(C)cc1 [drawing 648] | 0.03233 | 0.05083 | −0.02764 | −0.06749 | −0.1666 | −0.1295
Fc1ccc(-c2ccnc3nc(N4CCN(c5ccccc5)CC4)nn23)cc1 [drawing 649] | 0.1594 | 0.2225 | 0.1641 | 0.1229 | 0.02594 | 0.02675
CCOc1cc2c3c(c1)C(C)=CC(C)(C)N3C(=O)C2=O [drawing 650] | 0.1703 | 0.1592 | −0.1933 | −0.4363 | −0.8277 | −0.8257
COc1ccc2c(c1)/C(=C\c1cccc(/C=C3/C(=O)Nc4ccc(OC)cc43)n1)C(=O)N2 [drawing 651] | −0.2196 | −0.4455 | −0.825 | −0.8112 | −0.9441 | −0.9511
C/C(=N\NC(=O)c1cc(C)oc1C)c1ccc2ccccc2c1 [drawing 652] | −0.1564 | −0.09115 | 0.2722 | −0.1575 | −0.3649 | −0.6275

Source: patent US10028992B2, “Methods of treating muscular dystrophy” (BOARD OF REGENTS OF THE NEVADA SYSTEM OF HIGHER EDUCATION …, priority 2012, dated 2018)
